Blank lines part the entries; values can stand above or below the molecule they belong to.
Legend:
CYP3A [1] = target: CYP3A (Homo sapiens, UniProt P08684); settings: ciprofloxacin at 2 mM, in vitro; cited from earlier work
CYP3A/P‐gp = settings: clinical DDI studies; cited from earlier work
P‐gp = settings: reported value, P-gp-mediated efflux; cited from earlier work
[2] = Physicochemical properties of naloxegol; settings: Experimental data
[3] = Naloxegol blood/plasma, microsomal and gut binding inputs; type: in vitro ADME; settings: plasma
[4] = Apparent permeability of naloxegol in Caco-2 cells; type: in vitro ADME; settings: human
CYP3A4 = assay: Retrograde calculation of naloxegol metabolic intrinsic clearance; parameters: species or system human
[5] = cited from earlier work
[6] = cited from earlier work; remark: listed apart in the source
CYP3A [7] = settings: individual CYP enzymes and human liver microsomes in vitro; cited from earlier work

Sequence of CYP3A (Homo sapiens, UniProt P08684) (P08684 2-503): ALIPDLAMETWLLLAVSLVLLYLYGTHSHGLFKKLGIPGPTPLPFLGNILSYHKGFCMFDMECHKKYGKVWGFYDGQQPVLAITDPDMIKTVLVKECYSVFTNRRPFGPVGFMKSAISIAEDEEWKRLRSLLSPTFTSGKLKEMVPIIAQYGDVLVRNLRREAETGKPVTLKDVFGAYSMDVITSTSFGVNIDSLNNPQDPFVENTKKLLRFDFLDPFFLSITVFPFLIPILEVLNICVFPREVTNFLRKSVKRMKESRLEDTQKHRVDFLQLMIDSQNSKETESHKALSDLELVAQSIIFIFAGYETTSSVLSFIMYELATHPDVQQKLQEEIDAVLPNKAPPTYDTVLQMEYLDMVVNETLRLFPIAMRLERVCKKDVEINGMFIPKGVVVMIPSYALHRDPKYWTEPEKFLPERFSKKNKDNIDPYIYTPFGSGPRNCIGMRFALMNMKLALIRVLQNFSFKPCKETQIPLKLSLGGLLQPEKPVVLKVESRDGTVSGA

Structure (SMILES): O=C(O)c1cn(C2CC2)c2cc(N3CCNCC3)c(F)cc2c1=O [Ciprofloxacin, ciprofloxacin]
inhibition of erythromycin‐mediated CYP3A activity (CYP3A [1]): 65%

Structure (SMILES): CC(=O)N1CCN(c2ccc(OCC3COC(Cn4ccnc4)(c4ccc(Cl)cc4Cl)O3)cc2)CC1 (centres unmarked) [Ketoconazole, ketoconazole]
observed increase of naloxegol AUC (CYP3A/P‐gp): 1,185%

Structure (SMILES): C[C@H]1O[C@@H](O[C@H]2[C@@H](O)C[C@H](O[C@H]3[C@@H](O)C[C@H](O[C@H]4CC[C@@]5(C)[C@H](CC[C@@H]6[C@@H]5C[C@@H](O)[C@]5(C)[C@@H](C7=CC(=O)OC7)CC[C@]65O)C4)O[C@@H]3C)O[C@@H]2C)C[C@H](O)[C@@H]1O [digoxin]
in vitro transporter‐mediated intrinsic clearance (P‐gp): 2.5 µL/min

pKa [2]: 8.45
fraction unbound [3]: 0.958
Papp [4]: 4.55 ×10⁻⁶ cm/s
CYP3A4 CLint (CYP3A4; Retrograde calculation): 0.267 μL/min/pmol protein
microsomal CLint (CYP3A4; human): 36.6 µL/min/mg
Structure (SMILES): C=CCN1CC[C@]23c4c5ccc(O)c4O[C@H]2[C@@H](OCCOCCOCCOCCOCCOCCOCCOC)CC[C@@]3(O)[C@H]1C5 [naloxegol]
solubility [5]: highly soluble
parent drug excreted in urine ([6]; 27 mg [14C]naloxegol oral solution, healthy male volunteers): < 6 % of the dose
dose linearity of PK ([6]; dose of up to 1,000 mg): linear or near linear
CLR ([6]; renal clearance from the renal impairment study): 4.74 L/h
CLpo ([6]; total clearance after an oral dose, observed in the ketoconazole DDI study): 150 L/h
CYP enzymes metabolizing naloxegol (CYP3A [7]): metabolized primarily by CYP3A

From paper PMC4879473 (CPT: Pharmacometrics & Systems Pharmacology, 2016)
